GI50 and TGI data for 7 compounds are collected here from PubChem BioAssay (NCI).

Common to all, as to assay: NCI tumour cell line growth inhibition, 48 h
Test [1] relates to ACHN renal.
The subject of test [2] is CAKI-1 renal.
The test system of test [3] is EKVX NSCLC.
Test [4] has as its system HCT-15 colon.
Test [5] deals with HS 578T breast.
Test [6] deals with MOLT-4 leukemia.
The subject of test [7] is NCI-H460 lung.
Test [8] has as its system OVCAR-3 ovarian.
Test [9] concerns SK-MEL-2 melanoma.
The test system of test [10] is SK-MEL-5 melanoma.

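1) Cells in 96-well plates. 2) Compound, 48 h, 5 concentrations. 3) Linear interpolation between surrounding doses. 4) Unreached endpoint = highest concentration. The concentration for 50% growth inhibition is given as GI50. TGI marks complete inhibition of growth.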 A value given as a limit tells only on which side of the number the result lay.

Consider `COc1ccc(-c2ccc(=O)oc2-c2cc(OC)c(OC)c(OC)c2)cc1O`, for which the GI50 in test [1] is 135 nM; in [2] it was 45.9 nM; in test [3], 0.0807 µM; in test [4] it was 13.8 nM; in test [5] it was 0.0275 µM; in test [6] it was 51.2 nM. Besides, the GI50 in [7] was 0.0244 µM; in test [8] it was < 10 nM; in [9], 0.315 µM; in [10], < 10 nM. Moreover, the TGI in test [1] was > 73.3 µM; in [2], > 100 µM; in [3], > 100 µM; in test [4] it was > 20.5 µM; in test [5], > 100 µM; in test [6], > 100 µM. Also, the TGI was 0.16 µM in [8], > 100 µM in test [9] and 3.45 µM in test [10].

In the case of `COc1cccc(NC(=O)c2ccc(C(F)(F)F)nc2Nc2ccc(Cl)cc2C)c1`, the GI50 was 2760 nM in [2]; 10.2 µM in [3]; 11000 nM in test [4]; 6.56 µM in test [5]; 10200 nM in test [6]; 9.01 µM in test [7]. In addition, the GI50 was 4690 nM in test [8], 10.3 µM in [9] and 14600 nM in test [10]. Moreover, the TGI in test [2] is 17.1 µM; in test [3], 24.2 µM; in test [4], 22.9 µM; in test [5] it was 29.3 µM; in test [6], 51 µM; in [7], 24.1 µM. For the same compound, the results for the TGI in test [8], in test [9] and in test [10] were 19.9 µM, 21.9 µM and 27.8 µM, respectively.

Take `COc1cc(/C=C\c2cc(/C=C\c3ccc(O)c(OC)c3)n(C(=O)Nc3ccc(C(F)(F)F)cc3)n2)ccc1O`: the GI50 in [1] is 2480 nM; in test [2] it was 3020 nM; in test [3], 3.22 µM; in [4] it was 2690 nM; in test [5], 5.1 µM; in test [6] it was 2730 nM. Further, the GI50 in [7] was 3.22 µM; in [8], 3410 nM; in [9], 3.15 µM; in test [10] it was 2270 nM. In addition, the TGI amounted to 7.08 µM in test [1]; 12.7 µM in test [2]; 38.4 µM in [3]; 9.63 µM in test [4]; 60.6 µM in test [5]; 20 µM in test [6]. Besides, the TGI in test [7] amounted to 9.95 µM; in test [8] it was 26.7 µM; in test [9], 17.3 µM; in test [10] it was 6.89 µM.

In the case of `COc1ccc(CNCCCN2C(=O)c3ccc4c5c(ccc(c35)C2=O)C(=O)N(CCCNCCCCNCCCN)C4=O)c(OC)c1OC`, the GI50 in test [2] is 4490 nM; in test [3], 4.05 µM; in [4] it was 2760 nM; in [5], 7.52 µM; in test [6] it was 1530 nM; in test [7], 0.703 µM. For the same compound, the GI50 in test [8] was 1170 nM; in test [9] it was 1.72 µM. Besides, the TGI is 44.9 µM in [2]; 19.3 µM in test [3]; 7.94 µM in test [4]; 43.4 µM in test [5]; 15.6 µM in [6]; 7.03 µM in test [7]. In addition, the TGI in test [8] is 2.48 µM; in test [9] it was 4.11 µM.

Consider `O=c1cc(-c2ccccc2)oc2cc(OCc3cn(Cc4ccc(F)cc4)nn3)cc(O)c12`, for which the GI50 was 6230 nM in test [1]; 5760 nM in test [2]; 63.8 µM in test [3]; 6.26 µM in test [5]; > 100000 nM in [6]; 6.8 µM in test [9]. Also, the GI50 in test [10] was > 100000 nM. Further, the TGI in [1] is > 100 µM; in test [2], > 100 µM; in [3], > 100 µM; in [5], > 100 µM; in test [6], > 100 µM; in test [9], 36.1 µM. Also, the TGI in test [10] is > 100 µM.

Turning to `O=C(/C=C/c1ccccc1)c1ccc(O)c(CN2CCN(c3cc4c(cc3F)c(=O)c(C(=O)O)cn4C3CC3)CC2)c1`, the GI50 in [1] is 1900 nM; in test [2], 2420 nM; in [3], 3.66 µM; in [4], 2640 nM; in test [5], 0.577 µM; in test [7], 3.85 µM. Besides, the GI50 is 1910 nM in test [8], 3.3 µM in test [9] and 1890 nM in test [10]. Also, the TGI is 13.9 µM in [1]; > 100 µM in test [2]; > 100 µM in test [3]; > 100 µM in test [4]; > 100 µM in [5]; > 100 µM in test [7]. In addition, the TGI in test [8] was > 100 µM; in [9] it was > 100 µM; in [10] it was 7.48 µM.

For the compound `Nc1nc(N)c2ncn(Cc3c(Cl)cccc3Cl)c2n1`, the TGI in test [1], in test [2], in test [3], in test [4], in test [5] and in [6] was > 100 µM each time. In addition, the TGI in [8], in [9] and in test [10] was > 100 µM each time.
